Results: patent US12215140B2, “Method of stabilizing protein contained in specimen and solution for stabilizing protein contained in specimen” (EIKEN KAGAKU KABUSHIKI KAISHA, priority 2018, dated 2025)

Test system: hemoglobin-haptoglobin complex
Assay: Stability of hemoglobin (as hemoglobin-haptoglobin complex) in samples preserved at 37° C. in preservation solution containing 1 unit/L haptoglobin, Hb measured by latex agglutination method (Examples 1 to 7)
Parameters: species or system human
Conditions: for Recovery ratio with respect to Hb concentration after 0 days / Hb concentration / Recovery ratio with respect to Hb after 0 days: 37° C.; for recovery ratio of hemoglobin in the sample: Feces 1, Feces 2, Feces 3
Method: Preservation solutions were prepared with the addition of 40 mmol/L HEPES (pH 6.8), 0.1% BSA, 0.1% NaN3, 1 unit/L haptoglobin, and 0 to 100 mmol/L phenylboronic acid. Samples obtained by adding hemoglobin-added fecal specimens to the preservation solutions so that the fecal concentration would be 0.5% were preserved at 37° C. for 0, 7, 14, and 21 days. The fecal specimens were added with hemoglobin having an amount such that the hemoglobin concentration in the samples would be about 300 μg/L. Instead of the fecal specimens to which hemoglobin was added, samples containing no fecal specimens, in which hemoglobin was added to the preservation solutions so that the hemoglobin concentration in the samples would be 300 μg/L, were similarly preserved. The hemoglobin (Hb) concentrations (μg/L) in the preserved samples were measured by the latex agglutination method.
The concentrations of hemoglobin were measured using “OC-Hemodia (registered trademark) Auto III ‘EIKEN’” (available from EIKEN CHEMICAL CO., LTD.) as a measurement reagent and “OC-sensor DIANA” (available from EIKEN CHEMICAL CO., LTD.) as a measurement device. The above measurement reagent contains latex particles immobilizing an anti-human hemoglobin rabbit polyclonal antibody.
From the measured concentrations of hemoglobin, the recovery ratios (%) were calculated with respect to the hemoglobin concentrations immediately after the fecal specimens were added to the preservation solutions (i.e., concentrations 0 days after the fecal specimens were added).
(§1) For comparative examples, preservation solutions to which no arylboronic acid was added were prepared, and testing was conducted in the same manner.
(§2) The concentration of phenylboronic acid in the preservation solutions of Example 1 was fixed to 15 mmol/L, preservation solutions to which a sugar (sorbitol, sucrose, trehalose, glucose, fructose, or mannitol) was further added at 50 mmol/L or 100 mmol/L or preservation solutions to which no sugar was added were prepared, and testing was conducted in the same manner as in Example 1. For comparative examples, preservation solutions to which the phenylboronic acid and sugar were not added were prepared, and testing was conducted in the same manner.
Preservation solutions in which sorbitol, sucrose, trehalose, glucose, fructose, or mannitol was added at 100 mmol/L to the preservation solutions of Example 1 containing no phenylboronic acid were prepared, and testing was conducted in the same manner as in Example 1. For comparison, the same testing was conducted without adding these sugars.
as §2, with “sorbitol” for “a sugar (sorbitol, sucrose, trehalose, glucose, fructose, or mannitol)”, “was” for “was further”, “10 to 500” for “50”, “sucrose was added at 10 to 250” for “100”
as §1

[1] = Feces 3, sugar 50 mmol/L + phenylboronic acid 15 mmol/L, 7 days
[2] = Feces 3, sugar 50 mmol/L + phenylboronic acid 15 mmol/L, 14 days
[3] = Feces 3, sugar 100 mmol/L + phenylboronic acid 15 mmol/L, 0 days
[4] = Feces 3, sugar 100 mmol/L + phenylboronic acid 15 mmol/L, 0 days (Table 7)
[5] = Feces 3, sugar 100 mmol/L + phenylboronic acid 15 mmol/L, 7 days
[6] = Feces 3, sugar 100 mmol/L + phenylboronic acid 15 mmol/L, 7 days (Table 7)
[7] = Feces 3, sugar 100 mmol/L + phenylboronic acid 15 mmol/L, 14 days
[8] = Feces 3, sugar 100 mmol/L + phenylboronic acid 15 mmol/L, 14 days (Table 7)
[9] = Feces 3, sugar 100 mmol/L + phenylboronic acid 50 mmol/L, 0 days
[10] = Feces 3, sugar 100 mmol/L + phenylboronic acid 50 mmol/L, 7 days
[11] = Feces 3, sugar 100 mmol/L + phenylboronic acid 50 mmol/L, 14 days
[12] = Feces 3, sugar 100 mmol/L, no phenylboronic acid, 0 days
[13] = Feces 3, sugar 100 mmol/L, no phenylboronic acid, 7 days
[14] = Feces 3, sugar 100 mmol/L, no phenylboronic acid, 14 days
[15] = No feces, sugar 50 mmol/L + phenylboronic acid 15 mmol/L, 0 days
[16] = No feces, sugar 50 mmol/L + phenylboronic acid 15 mmol/L, 7 days
[17] = No feces, sugar 50 mmol/L + phenylboronic acid 15 mmol/L, 14 days
[18] = No feces, sugar 100 mmol/L + phenylboronic acid 15 mmol/L, 0 days
[19] = No feces, sugar 100 mmol/L + phenylboronic acid 15 mmol/L, 0 days (Table 7)
[20] = No feces, sugar 100 mmol/L + phenylboronic acid 15 mmol/L, 7 days
[21] = No feces, sugar 100 mmol/L + phenylboronic acid 15 mmol/L, 7 days (Table 7)
[22] = No feces, sugar 100 mmol/L + phenylboronic acid 15 mmol/L, 14 days
[23] = No feces, sugar 100 mmol/L + phenylboronic acid 15 mmol/L, 14 days (Table 7)
[24] = No feces, sugar 100 mmol/L + phenylboronic acid 50 mmol/L, 0 days
[25] = No feces, sugar 100 mmol/L + phenylboronic acid 50 mmol/L, 7 days
[26] = No feces, sugar 100 mmol/L + phenylboronic acid 50 mmol/L, 14 days
[27] = No feces, sugar 100 mmol/L, no phenylboronic acid, 0 days
[28] = No feces, sugar 100 mmol/L, no phenylboronic acid, 7 days
[29] = No feces, sugar 100 mmol/L, no phenylboronic acid, 14 days

SMILES: OC[C@@H](O)[C@@H](O)[C@H](O)[C@H](O)CO [Mannitol, mannitol]
- Recovery ratio with respect to Hb concentration after 0 days (Feces 3, sugar 50 mmol/L + phenylboronic acid 15 mmol/L, 0 days): 100%
- Hb concentration [1]: 247 µg/L
- Recovery ratio with respect to Hb concentration after 0 days [1]: 84%
- Hb concentration [2]: 238 µg/L
- Recovery ratio with respect to Hb concentration after 0 days [2]: 81%
- Hb concentration [3]: 286 µg/L
- Recovery ratio with respect to Hb concentration after 0 days [3]: 100%
- Hb concentration [4]: 288 µg/L
- Recovery ratio with respect to Hb after 0 days [4]: 100%
- Hb concentration [5]: 243 µg/L
- Recovery ratio with respect to Hb concentration after 0 days [5]: 85%
- Hb concentration [6]: 231 µg/L
- Recovery ratio with respect to Hb after 0 days [6]: 80%
- Hb concentration [7]: 240 µg/L
- Recovery ratio with respect to Hb concentration after 0 days [7]: 84%
- Hb concentration [8]: 220 µg/L
- Recovery ratio with respect to Hb after 0 days [8]: 76%
- Hb concentration [9]: 254 µg/L
- Recovery ratio with respect to Hb after 0 days [9]: 100%
- Hb concentration [10]: 233 µg/L
- Recovery ratio with respect to Hb after 0 days [10]: 92%
- Hb concentration [11]: 226 µg/L
- Recovery ratio with respect to Hb after 0 days [11]: 89%
- Hb concentration [12]: 282 µg/L
- Recovery ratio with respect to Hb concentration after 0 days [12]: 100%
- Hb concentration [13]: 93 µg/L
- Recovery ratio with respect to Hb concentration after 0 days [13]: 33%
- Hb concentration [14]: 78 µg/L
- Recovery ratio with respect to Hb concentration after 0 days [14]: 28%
- Hb concentration [15]: 270 µg/L
- Recovery ratio with respect to Hb concentration after 0 days [15]: 100%
- Hb concentration [16]: 263 µg/L
- Recovery ratio with respect to Hb concentration after 0 days [16]: 98%
- Hb concentration [17]: 254 µg/L
- Recovery ratio with respect to Hb concentration after 0 days [17]: 94%
- Hb concentration [18]: 269 µg/L
- Recovery ratio with respect to Hb concentration after 0 days [18]: 100%
- Hb concentration [19]: 287 µg/L
- Recovery ratio with respect to Hb after 0 days [19]: 100%
- Hb concentration [20]: 260 µg/L
- Recovery ratio with respect to Hb concentration after 0 days [20]: 97%
- Hb concentration [21]: 272 µg/L
- Recovery ratio with respect to Hb after 0 days [21]: 95%
- Hb concentration [22]: 252 µg/L
- Recovery ratio with respect to Hb concentration after 0 days [22]: 94%
- Hb concentration [23]: 269 µg/L
- Recovery ratio with respect to Hb after 0 days [23]: 94%
- Hb concentration [24]: 254 µg/L
- Recovery ratio with respect to Hb after 0 days [24]: 100%
- Hb concentration [25]: 242 µg/L
- Recovery ratio with respect to Hb after 0 days [25]: 95%
- Hb concentration [26]: 241 µg/L
- Recovery ratio with respect to Hb after 0 days [26]: 95%
- Hb concentration [27]: 261 µg/L
- Recovery ratio with respect to Hb concentration after 0 days [27]: 100%
- Hb concentration [28]: 251 µg/L
- Recovery ratio with respect to Hb concentration after 0 days [28]: 96%
- Hb concentration [29]: 244 µg/L
- Recovery ratio with respect to Hb concentration after 0 days [29]: 93%
- recovery ratio of hemoglobin in the sample (sugar 100 mmol/L further added to other arylboronic acids (3-CPBA, 3-HPBA, 3-APBA) 15 mmol/L): further improved
- recovery ratio of hemoglobin in the sample (sugar 50 or 100 mmol/L further added to phenylboronic acid 15 mmol/L): remarkably improved
